# Source: US20240376286A1, “DIHYDROXY COMPOUND MANUFACTURING METHOD AND RECYCLED RESIN MANUFACTURING METHOD” (MITSUBISHI GAS CHEMICAL COMPANY, INC., priority 2021, published 2024)
# Key:
# [1] = Solubility in methyl ethyl ketone (MEK) at 25° C.; assay type: physicochemical; details: solvent MEK
# [2] = Solubility in toluene at 25° C.; assay type: physicochemical; details: solvent toluene
solubility in methyl ethyl ketone (MEK) at 25° C. [1],solubility in toluene at 25° C. [2],SMILES
0.75 g/(10 mL),0.1 g/(10 mL),"OCCOc1ccc2ccccc2c1-c1c(OCCO)ccc2ccccc12 [BNE, 2,2′-bis(2-hydroxyethoxy)-1,1′-binaphthalene]"
4.5 g/(10 mL),0.05 g/(10 mL),"OCCOc1ccc(C2(c3ccc(OCCO)c(-c4ccccc4)c3)c3ccccc3-c3ccccc32)cc1-c1ccccc1 [BPPEF, 9,9-bis[4-(2-hydroxyethoxy)-3-phenylphenyl]fluorene]"
0.3 g/(10 mL),0.3 g/(10 mL),"OCCOc1ccc2cc(-c3ccccc3)ccc2c1-c1c(OCCO)ccc2cc(-c3ccccc3)ccc12 [DP, 2,2′-bis(2-hydroxyethoxy)-6,6′-diphenyl-1,1′-binaphthalene]"
